Measured values published in patent US20260285880A1, “SUBSTITUTED DIHYDROTHIENOPYRIMIDINE COMPOUND, PREPARATION METHOD THEREFOR, AND USE THEREOF” (SHANGHAI YIDI BIOTECHNOLOGY CO., LTD., priority 2023, published 2026).

Key:
[1] = target: Flpin-293-PDE4B2 cells (Homo sapiens, UniProt Q07343); assay: cell-based; conditions: for inhibition at 0.001 µM: read-out: Cell Inhibition % @1 nM, 1 nM, Flpin-293-PDE4B2 cells; for inhibition at 0.01 µM: read-out: Cell Inhibition % @10 nM, 10 nM, Flpin-293-PDE4B2 cells; for inhibition at 0.1 µM: read-out: Cell Inhibition % @100 nM, 100 nM, Flpin-293-PDE4B2 cells
Sequence of Flpin-293-PDE4B2 cells (Q07343 1-564 isoform Q07343-2): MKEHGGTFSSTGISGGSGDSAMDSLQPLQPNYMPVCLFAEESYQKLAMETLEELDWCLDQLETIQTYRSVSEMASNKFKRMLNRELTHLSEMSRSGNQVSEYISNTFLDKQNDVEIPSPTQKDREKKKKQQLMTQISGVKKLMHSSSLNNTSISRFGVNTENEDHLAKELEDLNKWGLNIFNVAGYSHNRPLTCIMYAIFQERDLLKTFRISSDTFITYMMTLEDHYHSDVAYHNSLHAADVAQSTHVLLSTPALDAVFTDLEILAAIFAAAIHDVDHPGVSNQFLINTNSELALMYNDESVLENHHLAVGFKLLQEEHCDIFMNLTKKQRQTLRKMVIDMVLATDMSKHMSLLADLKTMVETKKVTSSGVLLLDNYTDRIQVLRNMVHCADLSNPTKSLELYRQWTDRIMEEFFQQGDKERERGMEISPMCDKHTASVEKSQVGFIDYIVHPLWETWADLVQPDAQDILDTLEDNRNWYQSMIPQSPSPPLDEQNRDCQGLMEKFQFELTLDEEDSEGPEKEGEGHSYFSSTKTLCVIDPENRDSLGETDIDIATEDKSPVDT
Protocol: All compounds were dissolved in DMSO into 10 mM or 20 mM stock solutions. The compound to be tested was diluted with DMSO with a 3-fold gradient. […] 40 nL/well of the compound or a DMSO control was transferred to a 384-well plate by using Echo 550 instrument. […] The plate was incubated at 37° C. for 30 minutes. Eu-cAMP tracer and Ulight-anti-cAMP were frozen and thawed and diluted in a lysis buffer. 10 of μl Eu-cAMP tracer was added to an experimental well, and 10 μl of Ulight-anti-cAMP was added to the experimental well. The reaction plate was centrifuged at 200 g at room temperature for 30 s and then left to stand at 25° C. for 1 h, and data was then collected by Envision. Inhibition %=100−(Signal compound−SignalAve positive control)/(SignalAve negative control−SignalAve positive control)×100.

[2] = target: PDE4B2 (Homo sapiens, UniProt Q07343); conditions: for IC50: read-out: PDE4B2 IC50, enzyme assay
Sequence of PDE4B2 (Q07343 1-564 isoform Q07343-2, species assumed): as the sequence (Q07343 1-564 isoform Q07343-2) above
Protocol: All compounds were dissolved in DMSO into 10 mM or 20 mM stock solutions. The compound to be tested was diluted with DMSO in a 3-fold gradient. 20 nL/well of the compound or a DMSO control was transferred to a 384-well plate by using Echo 550 instrument. The plate was sealed with a membrane and centrifuged for 1 minute. A 2× enzyme solution was prepared with an assay buffer, and 2 uL/well of the 2× enzyme solution was added, followed by equilibration at room temperature for 10 minutes. A 2× Cyclic-3′,5′-AMP substrate solution was prepared with an assay buffer, and 2 uL/well of the 2× substrate solution was added, followed by incubation at room temperature for 60 minutes. 4 μL of AMP-glo reagent was added, followed by incubation at room temperature for 60 minutes. 8 ul of an AMP detection solution was added, followed by incubation at room temperature for 60 minutes. An RLU value was read on Envision 2105 plate reader. The RLU value represents the concentration of the product AMP. Inhibition rate %=(1−(RLUpositive control−RLUcomnpound)/(RLUpositive control−RLUnegative control))*100. The IC50 value was then calculated by Graphpad 8.0 software using Y=Bottom+(Top−Bottom)/(1+10^((LogIC50−X)*HillSlope)).

C[C@H]1CN(c2nc3c(c(NC4(CO)CCC4)n2)[S+]([O-])CC3)Cc2ccc(Cl)cc21 (stereo partly shown) [Compound 120]
inhibition at 0.001 µM [1]: 4.1% | inhibition at 0.01 µM [1]: 7.4% | inhibition at 0.1 µM [1]: 23.1% | IC50 [2]: 0.98 nM

CN1C[C@H]2C[C@@H]1CN2c1ccc2c(c1)CCN(c1nc3c(c(NC4(CO)CCC4)n1)[S+]([O-])CC3)C2 (stereo partly shown) [Compound 155]
inhibition at 0.001 µM [1]: 12% | inhibition at 0.01 µM [1]: 46.8% | inhibition at 0.1 µM [1]: 76.1% | IC50 [2]: 0.692 nM

(R)-4-((1-(hydroxymethyl)cyclobutyl)amino)-2-(6-(1-methyl-2,5-dihydro-1H-pyrrol-3-yl)-3,4-dihydroisoquinolin-2(1H)-yl)-6,7-dihydrothieno[3,2-d]pyrimidine 5-oxide [Compound 169]
PDE4B2 Enzyme Inhibition % @10 nM ([2]; 10 nM): 20.43% | PDE4B2 Enzyme Inhibition % @100 nM ([2]; 100 nM): 78.77%

[O-][S+]1CCc2nc(N3CCC4=C(COc5ccccc54)C3)nc(NC3(CO)CCC3)c21 (stereo not shown) [Compound 97]
inhibition at 0.001 µM [1]: 1.66% | inhibition at 0.01 µM [1]: 17.4% | inhibition at 0.1 µM [1]: 86.5%

[O-][S+]1CCc2nc(N3CCc4c(nn5cc(F)ccc45)C3)nc(NC3(CO)CCC3)c21 (stereo not shown) [Compound 32]
inhibition at 0.001 µM [1]: 23.5% | inhibition at 0.01 µM [1]: 74.2% | inhibition at 0.1 µM [1]: 97.7%

Cn1cc(Nc2nc(N3CCc4cc(Cl)ccc4C3)nc3c2[S+]([O-])CC3)cn1 (stereo not shown) [Compound 141]
inhibition at 0.001 µM [1]: 11.4% | inhibition at 0.01 µM [1]: 49.2% | inhibition at 0.1 µM [1]: 96%

CN1CCN(c2ccc3c(c2)CCN(c2nc4c(c(NC5(CO)CCC5)n2)[S+]([O-])CC4)C3)C1=O (stereo not shown) [Compound 86]
inhibition at 0.001 µM [1]: 8.69% | inhibition at 0.01 µM [1]: 63.1% | inhibition at 0.1 µM [1]: 97.8%

[O-][S+]1CCc2nc(N3CC[C@@H]4c5cccc(Cl)c5OC[C@H]4C3)nc(NC3(CO)CCC3)c21 (stereo partly shown) [Compound 107]
inhibition at 0.001 µM [1]: 2.82% | inhibition at 0.01 µM [1]: 52.5% | inhibition at 0.1 µM [1]: 98.1%

NC(=O)c1ccc2c(c1)CCN(c1nc3c(c(NC4(CO)CCC4)n1)[S+]([O-])CC3)C2 (stereo not shown) [Compound 75]
inhibition at 0.001 µM [1]: 4.93% | inhibition at 0.01 µM [1]: 24.9% | inhibition at 0.1 µM [1]: 51.4%

Cn1ccc(-c2ccc3c(c2)CCN(c2nc4c(c(NC5(CO)CCC5)n2)[S+]([O-])CC4)C3)n1 (stereo not shown) [Compound 77]
inhibition at 0.001 µM [1]: 61% | inhibition at 0.01 µM [1]: 99.4% | inhibition at 0.1 µM [1]: 101%

CS(=O)(=O)c1ccc2c(c1)CCN(c1nc3c(c(NC4(CO)CCC4)n1)[S+]([O-])CC3)C2 (stereo not shown) [Compound 93]
inhibition at 0.001 µM [1]: 14% | inhibition at 0.01 µM [1]: 61% | inhibition at 0.1 µM [1]: 94.2%

COc1ccc2c(c1)OC[C@H]1CN(c3nc4c(c(NC5(CO)CCC5)n3)[S+]([O-])CC4)CC[C@H]21 (stereo partly shown) [Compound 110]
inhibition at 0.001 µM [1]: 19% | inhibition at 0.01 µM [1]: 76.1% | inhibition at 0.1 µM [1]: 100%

COc1nc2c(c3ccc(Cl)cc13)CCN(c1nc3c(c(NC4(CO)CCC4)n1)[S+]([O-])CC3)C2 (stereo not shown) [Compound 99]
inhibition at 0.001 µM [1]: 4.18% | inhibition at 0.01 µM [1]: 43.7% | inhibition at 0.1 µM [1]: 96.5%

C[C@H]1c2ccc(N3CCCC3)cc2CCN1c1nc2c(c(NC3(CO)CCCC3)n1)[S+]([O-])CC2 (stereo partly shown) [Compound 221]
inhibition at 0.001 µM [1]: 11.3% | inhibition at 0.01 µM [1]: 71.5% | inhibition at 0.1 µM [1]: 99.7%

C[C@H]1c2ccc(N3CCCC3)cc2CCN1c1nc2c(c(Nc3cnn(CCC#N)c3)n1)[S+]([O-])CC2 (stereo partly shown) [Compound 220]
inhibition at 0.001 µM [1]: 13.8% | inhibition at 0.01 µM [1]: 73.4% | inhibition at 0.1 µM [1]: 100%

Cc1ccc2c(c1)OC[C@H]1CN(c3nc4c(c(NC5(CO)CCC5)n3)[S+]([O-])CC4)CC[C@H]21 (stereo partly shown) [Compound 112]
inhibition at 0.001 µM [1]: 12.3% | inhibition at 0.01 µM [1]: 54.1% | inhibition at 0.1 µM [1]: 99.4%

[O-][S+]1CCc2nc(N3CC[C@H]4c5cnc(Cl)cc5OC[C@@H]4C3)nc(NC3(CO)CCC3)c21 (stereo partly shown) [Compound 117]
inhibition at 0.001 µM [1]: 5.32% | inhibition at 0.01 µM [1]: 17.3% | inhibition at 0.1 µM [1]: 61.6%

[O-][S+]1CCc2nc(N3CCc4c(ncc5cc(Cl)ccc45)C3)nc(NC3(CO)CCC3)c21 (stereo not shown) [Compound 100]
inhibition at 0.001 µM [1]: 6% | inhibition at 0.01 µM [1]: 47.7% | inhibition at 0.1 µM [1]: 97.3%

C[C@H]1c2ccc(N3CCCC3)cc2CCN1c1nc2c(c(Nc3nnn(C)n3)n1)[S+]([O-])CC2 (stereo partly shown) [Compound 213]
inhibition at 0.001 µM [1]: 9.25% | inhibition at 0.01 µM [1]: 29.6% | inhibition at 0.1 µM [1]: 89%

C[C@H]1c2ccc(N3CCCC3)cc2CCN1c1nc2c(c(Nc3ncnn3C)n1)[S+]([O-])CC2 (stereo partly shown) [Compound 217]
inhibition at 0.001 µM [1]: 2.48% | inhibition at 0.01 µM [1]: 25% | inhibition at 0.1 µM [1]: 84.5%

[O-][S+]1CCc2nc(N3CCc4ccc(Cl)cc4CC3)nc(NC3(CO)CCC3)c21 (stereo not shown) [Compound 34]
inhibition at 0.01 µM [1]: 14% | inhibition at 0.1 µM [1]: 62%

[O-][S+]1CCc2nc(N3CC[C@@H]4c5ccc(C(F)(F)F)cc5OC[C@H]4C3)nc(NC3(CO)CCC3)c21 (stereo partly shown) [Compound 111]
inhibition at 0.001 µM [1]: 8.07% | inhibition at 0.01 µM [1]: 22.2% | inhibition at 0.1 µM [1]: 81.1%

Cn1cc(Nc2nc(N3CCc4cc(N5CC6CC6C5)ccc4C3)nc3c2[S+]([O-])CC3)cn1 (stereo not shown) [Compound 223]
inhibition at 0.001 µM [1]: 11.3% | inhibition at 0.01 µM [1]: 73.7% | inhibition at 0.1 µM [1]: 99.2%

[O-][S+]1CCc2nc(N3CCc4cc(Cl)ccc4C3)nc(Nc3ccc(CCO)cc3)c21 (stereo not shown) [Compound 139]
inhibition at 0.001 µM [1]: 16.2% | inhibition at 0.01 µM [1]: 78.6% | inhibition at 0.1 µM [1]: 102%

[O-][S+]1CCc2nc(N3CCc4cc(-c5cnco5)ccc4C3)nc(NC3(CO)CCC3)c21 (stereo not shown) [Compound 85]
inhibition at 0.001 µM [1]: 41.7% | inhibition at 0.01 µM [1]: 97% | inhibition at 0.1 µM [1]: 101%

O=C1CCCN1c1ccc2c(c1)CCN(c1nc3c(c(NC4(CO)CCC4)n1)[S+]([O-])CC3)C2 (stereo not shown) [Compound 87]
inhibition at 0.001 µM [1]: 2.9% | inhibition at 0.01 µM [1]: 31.3% | inhibition at 0.1 µM [1]: 89.1%

[O-][S+]1CCc2nc(N3CCc4cc(N5CCCC5)ncc4C3)nc(NC3(CO)CCC3)c21 (stereo not shown) [Compound 183]
inhibition at 0.001 µM [1]: 12.8% | inhibition at 0.01 µM [1]: 78.5% | inhibition at 0.1 µM [1]: 99.9% | IC50 [2]: 0.413 nM

O=C(O)Cc1ccc(Nc2nc(N3CCc4cc(Cl)ccc4C3)nc3c2[S@@+]([O-])CC3)cc1 [Compound 128]
inhibition at 0.001 µM [1]: -0.97% | inhibition at 0.01 µM [1]: 6.68% | inhibition at 0.1 µM [1]: 25.4%

C[C@H]1c2ccc(N3CCCC3)cc2CCN1c1nc2c(c(Nc3cn(C)nn3)n1)[S+]([O-])CC2 (stereo partly shown) [Compound 214]
inhibition at 0.001 µM [1]: 1.8% | inhibition at 0.01 µM [1]: 15.1% | inhibition at 0.1 µM [1]: 64.1%

C[C@H]1c2ccc(N3CCCC3)cc2CCN1c1nc2c(c(NC3CCOCC3)n1)[S+]([O-])CC2 (stereo partly shown) [Compound 205]
inhibition at 0.001 µM [1]: 28.5% | inhibition at 0.01 µM [1]: 92.4% | inhibition at 0.1 µM [1]: 101%

C[C@H]1c2ccc(N3CCCC3)cc2CCN1c1nc2c(c(N[C@H]3CCC(=O)N(C)C3)n1)[S+]([O-])CC2 (stereo partly shown) [Compound 202]
inhibition at 0.001 µM [1]: 52.5% | inhibition at 0.01 µM [1]: 99.4% | inhibition at 0.1 µM [1]: 101%

C[C@H]1c2ccc(N3CCCC3)cc2CCN1c1nc2c(c(Nc3ccnn3CCO)n1)[S+]([O-])CC2 (stereo partly shown) [Compound 219]
inhibition at 0.001 µM [1]: 6.98% | inhibition at 0.01 µM [1]: 32.6% | inhibition at 0.1 µM [1]: 66.3%

[O-][S+]1CCc2nc(N3CCc4cc(N5CCCC5)ccc4C3)nc(NC3(CO)CCC3)c21 (stereo not shown) [Compound 92]
inhibition at 0.001 µM [1]: 3.35% | inhibition at 0.01 µM [1]: 43.7% | inhibition at 0.1 µM [1]: 98.2%
